From paper PMC3355227 (ACS Chemical Biology, 2012)
Where a SMILES comes first, the peptide text is derived from it. Where no end group is shown, it is not given here. [ ]: non-standard residue; d: D form. The star is where a group is joined. pT = C[C@@H](OP(=O)(O)O)[C@H](N)C(=O)O; Hyp = O=C(O)[C@@H]1C[C@@H](O)CN1; Butyl(4-Ph) = c1ccc(CCCC*)cc1

Tests used:
[1] = target: Flag-Plk2 (K108M) (Mus musculus, UniProt P53351, K108M); assay: Peptide pull-down assay from mitotic 293T cell lysates, Plk2; details: bead-immobilized peptide, anti-Flag immunoblot
[2] = target: HA-EGFP-Plk1 (Plk1 PBD) in mitotic 293A cell lysates (Homo sapiens, UniProt P53350); assay: ELISA-based PBD-binding inhibition assay; details: relative comparison; oxime libraries tested as crude reaction mixtures
Sequence of HA-EGFP-Plk1 (Plk1 PBD) in mitotic 293A cell lysates (P53350 whole entry): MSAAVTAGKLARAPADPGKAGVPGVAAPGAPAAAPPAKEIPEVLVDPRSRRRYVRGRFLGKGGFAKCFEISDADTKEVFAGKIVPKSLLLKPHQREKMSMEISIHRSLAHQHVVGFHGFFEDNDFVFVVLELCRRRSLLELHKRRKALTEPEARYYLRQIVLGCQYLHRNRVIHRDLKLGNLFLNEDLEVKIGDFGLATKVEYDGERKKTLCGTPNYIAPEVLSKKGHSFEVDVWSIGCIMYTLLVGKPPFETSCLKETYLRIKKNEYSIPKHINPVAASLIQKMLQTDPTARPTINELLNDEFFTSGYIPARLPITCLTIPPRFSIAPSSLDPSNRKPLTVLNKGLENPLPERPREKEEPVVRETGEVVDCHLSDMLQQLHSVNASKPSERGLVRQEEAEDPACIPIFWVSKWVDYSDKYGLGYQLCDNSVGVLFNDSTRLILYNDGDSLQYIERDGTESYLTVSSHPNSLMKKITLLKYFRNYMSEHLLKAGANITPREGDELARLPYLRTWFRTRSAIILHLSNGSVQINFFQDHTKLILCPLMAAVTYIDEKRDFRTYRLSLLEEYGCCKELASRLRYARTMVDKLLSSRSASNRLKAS

Sequence of Flag-Plk2 (K108M) (P53351 whole entry K108M): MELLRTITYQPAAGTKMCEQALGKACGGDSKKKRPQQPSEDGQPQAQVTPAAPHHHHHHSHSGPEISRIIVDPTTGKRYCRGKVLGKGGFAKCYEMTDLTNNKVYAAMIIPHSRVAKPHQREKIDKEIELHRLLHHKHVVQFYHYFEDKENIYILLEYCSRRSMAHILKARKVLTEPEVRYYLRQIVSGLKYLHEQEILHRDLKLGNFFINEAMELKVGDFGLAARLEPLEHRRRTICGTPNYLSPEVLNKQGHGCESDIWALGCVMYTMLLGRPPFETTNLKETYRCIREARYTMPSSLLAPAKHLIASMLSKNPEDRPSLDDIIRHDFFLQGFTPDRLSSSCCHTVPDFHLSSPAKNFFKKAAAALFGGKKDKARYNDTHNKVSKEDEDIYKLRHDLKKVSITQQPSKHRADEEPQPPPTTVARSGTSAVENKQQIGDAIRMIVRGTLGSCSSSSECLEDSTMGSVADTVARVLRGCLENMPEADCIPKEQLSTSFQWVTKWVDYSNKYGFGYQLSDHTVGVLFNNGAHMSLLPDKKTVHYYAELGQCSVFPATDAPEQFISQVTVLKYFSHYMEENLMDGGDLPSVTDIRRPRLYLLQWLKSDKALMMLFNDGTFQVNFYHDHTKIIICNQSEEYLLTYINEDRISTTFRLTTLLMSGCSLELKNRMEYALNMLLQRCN

| band for binding to Plk2 in pull-down [1] | band for binding to Plk2 in pull-down ([1]; listed as 7*) | relative binding affinity in ELISA-based Plk1 inhibition assay [2] | Compound |
| --- | --- | --- | --- |
| faint band | not seen | – | CC(=O)N1C[C@H](OCCCCc2ccccc2)C[C@H]1C(=O)N[C@@H](CC(C)C)C(=O)N[C@@H](Cc1c[nH]cn1)C(=O)N[C@@H](CO)C(=O)N[C@H](C(N)=O)[C@@H](C)OP(=O)(O)O [compound 7] |
| – | – | significant loss of affinity | 8(S4A): variant of 8 with the serine residue replaced by alanine (P(Butyl(4-Ph))LHA[pT]) |
| – | – | significant loss of affinity | CC(=O)N1C[C@H](OCCCCc2ccccc2)C[C@H]1C(=O)N[C@@H](CC(C)C)C(=O)N[C@@H](Cc1c[nH]cn1)C(=O)N[C@@H](C)C(=O)N[C@H](C(N)=O)[C@@H](C)OP(=O)(O)O [7(S4A)] (Ac-[Hyp](Butyl(4-Ph))LHA[pT]-NH2; N-terminus and C-terminus assumed) |
